The values that follow come from US20210236476A1, “METHODS OF TREATING CANCER WITH SMALL MOLECULE PD-L1 INHIBITORS” (CHEMOCENTRYX, INC., priority 2018, published 2021).

In this test the target is T1, human PD-L1 / human PD-1 interaction (Homo sapiens, UniProt Q9NZQ7).
T1 construct: purchased R&D (PD-L1); ACRO Biosystems (PD-1, biotin)
Description: ELISA of PD-1/PD-L1 interaction. Format: binding. As to the method: The activity of Compound 1.041 was assessed with an ELISA assay assessing the direct binding of recombinant PD-1 and PD-L1 proteins (FIG. 1A), a dimerization ELISA assay assessing the direct binding/dimerization of recombinant PD-L1 proteins (FIG. 1B), a cell based assay measuring the downstream signaling following the interaction of PD-1 and PD-L1 using a Luciferase reporter assay with cell lines overexpressing PD-1 and PD-L1 (FIG. 1C), and a mixed lymphocyte reaction assay measuring the functional outcome of upregulation of IFNg secretion, using allogenic primary human immune cells (FIG. 1D). Briefly, the mixed lymophocyte reaction assay was performed as follows: Dendritic cells and CD4+T Cells from unmatched donors were cultured together for 5 days in 96 well-flat bottom plates. Test compound was added as indicated at starting concentration of 1 μM with 1:4 dilutions with DMSO. Supernatants were harvested after 5 days of incubation and detection of human IFNg was performed by ELISA. […]
96 Well plates were coated with 1 μg/mL of human PD-L1 (obtained from R&D) in
PBS overnight at 4° C. The wells were then blocked with 2% BSA in PBS (WN) with 0.05% TWEEN-20 for 1 hour at 37° C. The plates were washed 3 times with PBS/0.05% TWEEN-20 and the compounds were serial diluted (1:5) in dilution medium and added to the ELISA plates. Human PD-1 and biotin 0.3μg/mL (ACRO Biosystems) were added and incubated for 1 hour at 37° C. then washed 3 times with PBS/0.05% TWEEN-20. A second block was performed with 2% BSA in PBS (WN)/0.05% TWEEN-20 for 10 min at 37° C. and was washed 3 times with PBS/0.05% TWEEN-20. Streptavidin—HRP was added for 1 hour at 37° C. then washed 3 times with PBS/0.05% TWEEN-20. TMB substrate was added and reacted for 20 min at 37° C. A stop solution (2 N aqueous H2SO4) was added. The absorbance was read at 450 nm using a micro-plate spectrophotometer.
On the technique in general: ELISA stands for enzyme-linked immunosorbent assay.

T1 sequence (Q9NZQ7 19-239 limits assumed): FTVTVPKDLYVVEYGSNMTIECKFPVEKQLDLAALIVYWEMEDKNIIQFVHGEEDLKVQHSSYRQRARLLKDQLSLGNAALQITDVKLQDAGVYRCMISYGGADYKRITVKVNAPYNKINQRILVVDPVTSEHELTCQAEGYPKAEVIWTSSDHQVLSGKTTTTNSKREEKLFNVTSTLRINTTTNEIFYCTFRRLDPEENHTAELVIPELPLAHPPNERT

`Cc1c(OCCCN2CCC(O)CC2)cccc1-c1cccc2c1CCC2Oc1cc(OCc2cc(C#N)cc(C#N)c2)c(CN[C@@H]2CCCC[C@@H]2O)cc1Cl` (stereo partly shown) came in with an IC50 of less than 5 nM. `Cc1c(OCCCN2CCC(O)CC2)cccc1-c1cccc2c1CC[C@@H]2Oc1cc(OCc2cncc(C#N)c2)c(CN[C@H](C(=O)O)[C@@H](C)O)cc1Cl`: the IC50 was less than 5 nM. Under `C[C@@H](O)[C@H](NCc1cc(Cl)c(O[C@H]2CCc3c(-c4cccc(OCCCN5CCC(O)CC5)c4F)cccc32)cc1OCc1cncc(C#N)c1)C(=O)O` stands less than 5 nM; under `C[C@@](CO)(NCc1cc(Cl)c(O[C@H]2CCc3c(-c4cccc(OCCCN5CCC(O)CC5)c4F)cccc32)cc1OCc1cncc(C#N)c1)C(=O)O`, less than 5 nM; under `CCOc1cc(O[C@H]2CCc3c(-c4cccc(OCCCN5CCC(O)CC5)c4C)cccc32)c(Cl)cc1CN[C@@H](CO)C(=O)O`, less than 5 nM.

`CCOc1cc(O[C@H]2CCc3c(-c4cccc(OCCCN5CCC(O)CC5)c4C)cccc32)c(Cl)cc1CN[C@H](C(=O)O)[C@@H](C)O` had an IC50 of less than 5 nM.

The molecule `Cc1c(OCCCN2CCC(O)CC2)cccc1-c1cccc2c1CC[C@@H]2Oc1cc(OCc2cncc(C#N)c2)c(CN[C@H](C(N)=O)[C@@H](C)O)cc1Cl` yielded an IC50 of less than 5 nM.

The molecule `Cc1c(OCCCN2CCC(O)CC2)cccc1-c1cccc2c1CC[C@@H]2Oc1cc(OCc2cncc(C#N)c2)c(CN[C@@H](CO)C(N)=O)cc1Cl` gave an IC50 of less than 5 nM. For the molecule `Cc1c(OCCCN2CCC(O)CC2)cccc1-c1cccc2c1CC[C@@H]2Oc1cc(OCc2cncc(C#N)c2)c(CN[C@H](C(=O)NS(C)(=O)=O)[C@@H](C)O)cc1Cl`, the IC50 is less than 5 nM. Molecule `Cc1c(OCCCN2CCC(O)CC2)cccc1-c1cccc2c1CC[C@@H]2Oc1cc(OCc2cncc(C#N)c2)c(CN2CCC(O)CC2)cc1Cl` gave an IC50 of less than 5 nM. Take `Cc1c(OCCCN2CCC(O)CC2)cccc1-c1cccc2c1CC[C@@H]2Oc1cc(OCc2cncc(C#N)c2)c(CN2CC[C@H](O)C2)cc1Cl`: the concentration for half-maximal inhibition (IC50) is less than 5 nM. Regarding `CCOc1cc(O[C@H]2CCc3c(-c4cccc(OCCCN5CC[C@@H](O)C5)c4C)cccc32)c(Cl)cc1CNC(CO)CO`, the IC50 is less than 5 nM. Under `CCOc1cc(O[C@H]2CCc3c(-c4cccc(OCCCN5CC[C@@H](O)C5)c4C)cccc32)c(Cl)cc1CNC(C)(CO)CO` stands less than 5 nM. `Cc1c(OCCCN2CCC(O)CC2)cccc1-c1cccc2c1CC[C@@H]2Oc1cc(OCc2cncc(C#N)c2)c(CN2CC[C@@H](O)C2)cc1Cl` returned an IC50 of less than 5 nM. Take `Cc1c(OCCCN2CCC(O)CC2)cccc1-c1cccc2c1CC[C@@H]2Oc1cc(OCc2cncc(C#N)c2)c(CNCC2CCC(=O)N2)cc1Cl` (stereo partly shown): the IC50 was less than 5 nM. For the molecule `Cc1c(OCCCN2CCC(O)CC2)cccc1-c1cccc2c1CC[C@@H]2Oc1cc(OCc2cncc(C#N)c2)c(CNCC(C)(C)O)cc1Cl`, the IC50 is less than 5 nM. For the molecule `Cc1c(OCCCN2CCC(O)CC2)cccc1-c1cccc2c1CC[C@@H]2Oc1cc(OCc2cncc(C#N)c2)c(CN2CC(C(=O)O)C2)cc1Cl`, the IC50 is less than 5 nM. `Cc1c(OCCCN2CCC(O)CC2)cccc1-c1cccc2c1CC[C@@H]2Oc1cc(OCc2cncc(C#N)c2)c(CN[C@@H]2CCCC[C@H]2O)cc1Cl` yielded an IC50 of less than 5 nM.

In turn, `Cc1c(OCCCN2CCC(O)CC2)cccc1-c1cccc2c1CC[C@@H]2Oc1cc(OCc2cncc(C#N)c2)c(CN2CC(O)C2)cc1Cl` gave an IC50 of less than 5 nM. On to `Cc1c(OCCCN2CCC(O)CC2)cccc1-c1cccc2c1CC[C@@H]2Oc1cc(OCc2cncc(C#N)c2)c(CNCc2cn(C)cn2)cc1Cl`, for which the IC50 is less than 5 nM. Take `Cc1c(OCCCN2CCC(O)CC2)cccc1-c1cccc2c1CC[C@@H]2Oc1cc(OCc2cncc(C#N)c2)c(CN[C@@H]2CCC[C@H]2O)cc1Cl`: the IC50 was less than 5 nM.

Molecule `Cc1c(OCCCN2CCC(O)CC2)cccc1-c1cccc2c1CC[C@@H]2Oc1cc(OCc2cncc(C#N)c2)c(CNC2(C(=O)O)CCC2)cc1Cl` gave an IC50 of less than 5 nM. In the case of `Cc1c(OCCCN2CCC(O)CC2)cccc1-c1cccc2c1CC[C@@H]2Oc1cc(OCc2cncc(C#N)c2)c(CN[C@@H](CNC(=N)N)C(=O)O)cc1Cl`, the concentration for half-maximal inhibition (IC50) was less than 5 nM. Regarding `Cc1c(OCCCN2CCC(O)CC2)cccc1-c1cccc2c1CC[C@@H]2Oc1cc(OCc2cncc(C#N)c2)c(CN2CCC(C)(O)CC2)cc1Cl`, the half-inhibitory concentration (IC50) was less than 5 nM. `COC(=O)C1(O)CCN(CCCOc2cccc(-c3cccc4c3CC[C@@H]4Oc3cc(OCc4cncc(C#N)c4)c(CN[C@H](C(=O)O)[C@@H](C)O)cc3Cl)c2C)C1` (stereo partly shown) gave a 50% inhibitory concentration (IC50) of less than 5 nM.

`Cc1c(OCCCN2CC(C)(O)C2)cccc1-c1cccc2c1CC[C@@H]2Oc1cc(OCc2cncc(C#N)c2)c(CNCC2CCC(=O)N2)cc1Cl` (stereo partly shown) came in with an IC50 of less than 5 nM.

Molecule `Cc1c(OCCCN2C3CCC2CC(O)C3)cccc1-c1cccc2c1CC[C@@H]2Oc1cc(OCc2cncc(C#N)c2)c(CNCC2CCC(=O)N2)cc1Cl` (stereo partly shown) showed an IC50 of less than 5 nM. `Cc1c(OCCCN2CCC(F)CC2)cccc1-c1cccc2c1CC[C@@H]2Oc1cc(OCc2cncc(C#N)c2)c(CNCC2CCC(=O)N2)cc1Cl` (stereo partly shown) returned an IC50 of less than 5 nM. To `Cc1c(OCCCN2CC(O)C2)cccc1-c1cccc2c1CC[C@@H]2Oc1cc(OCc2cncc(C#N)c2)c(CNCC2CCC(=O)N2)cc1Cl` (stereo partly shown) belongs less than 5 nM; to `N#Cc1cncc(COc2cc(O[C@H]3CCc4c(-c5cccc(OCCCN6CCC(O)CC6)c5Cl)cccc43)c(Cl)cc2CNCC2CCC(=O)N2)c1` (stereo partly shown), less than 5 nM. With `C[C@@H](O)[C@H](NCc1cc(Cl)c(O[C@H]2CCc3c(-c4cccc(OCCCN5CCC(O)CC5)c4Cl)cccc32)cc1OCc1cncc(C#N)c1)C(N)=O`, the IC50 is less than 5 nM.

In turn, `Cc1c(OCCCN2CCC(O)CC2)cccc1-c1cccc2c1C[C@@H](F)[C@@H]2Oc1cc(OCc2cncc(C#N)c2)c(CN[C@@H](CO)C(=O)O)cc1Cl` yielded an IC50 of less than 5 nM. `Cc1c(OCCCN2CCC(O)CC2)cccc1-c1cccc2c1C[C@H](F)[C@@H]2Oc1cc(OCc2cncc(C#N)c2)c(CN[C@H](C(=O)O)[C@@H](C)O)cc1Cl` showed an IC50 of less than 5 nM. In the case of `Cc1c(OCCCN2CCC(O)CC2)cccc1-c1cccc2c1C[C@H](F)[C@@H]2Oc1cc(OCc2cncc(C#N)c2)c(CN[C@@](C)(CO)C(=O)O)cc1Cl`, the IC50 is less than 5 nM. Turning to `Cc1c(OCCCN2CCC(O)CC2)cccc1-c1cccc2c1C[C@H](F)[C@@H]2Oc1cc(OCc2cncc(C#N)c2)c(CN[C@@H]2CCCC[C@@H]2O)cc1Cl`, the IC50 is less than 5 nM. In turn, `Cc1c(OCCCN2CC[C@H](F)C2)cccc1-c1cccc2c1CC[C@@H]2Oc1cc(OCc2cncc(C#N)c2)c(CN[C@@H]2CCCC[C@@H]2O)cc1Cl` displayed an IC50 of less than 5 nM. `Cc1c(OCCCN2CC[C@@H](F)C2)cccc1-c1cccc2c1CC[C@@H]2Oc1cc(OCc2cncc(C#N)c2)c(CN[C@@H]2CCCC[C@@H]2O)cc1Cl` had an IC50 of less than 5 nM.

Consider `CC(CO)(CO)NCc1cc(Cl)c(O[C@H]2CCc3c(-c4cccc(OCCCN5CCNC(=O)C5)c4Cl)cccc32)cc1OCc1cncc(C#N)c1`, for which the IC50 was less than 5 nM. `N#Cc1cncc(COc2cc(O[C@H]3CCc4c(-c5cccc(OCCCN6CCNC(=O)C6)c5Cl)cccc43)c(Cl)cc2CNC2(C(=O)O)CCC2)c1` returned an IC50 of less than 5 nM. The molecule `N#Cc1cncc(COc2cc(O[C@H]3CCc4c(-c5cccc(OCCCN6CC7(CC(F)C7)C6)c5Cl)cccc43)c(Cl)cc2CN[C@@H]2CCCC[C@@H]2O)c1` had an IC50 of less than 5 nM. As for `N#Cc1cncc(COc2cc(O[C@H]3CCc4c(-c5cccc(OCCCN6CC7(C6)CC(F)(F)C7)c5Cl)cccc43)c(Cl)cc2CN[C@@H]2CCCC[C@@H]2O)c1`, the IC50 was less than 5 nM. The molecule `N#Cc1cncc(COc2cc(O[C@H]3CCc4c(-c5cccc(OCCCN6CC(F)C6)c5Cl)cccc43)c(Cl)cc2CN[C@@H]2CCCC[C@@H]2O)c1` showed a 50% inhibitory concentration (IC50) of less than 5 nM. `Cc1c(OCCCNCC(C)(C)O)cccc1-c1cccc2c1CC[C@@H]2Oc1cc(OCc2cncc(C#N)c2)c(CNCC2CCC(=O)N2)cc1Cl` (stereo partly shown): the IC50 is less than 5 nM. In the case of `CC(C)(O)[C@H](NCc1cc(Cl)c(O[C@H]2CCc3c(-c4cccc(OCCCN5CCC(F)CC5)c4Cl)cccc32)cc1OCc1cncc(C#N)c1)C(=O)O`, the IC50 was less than 5 nM.

Molecule `CC(C)OC(=O)[C@](C)(CO)NCc1cc(Cl)c(O[C@H]2CCc3c(-c4cccc(OCCCN5CC(O)C5)c4Cl)cccc32)cc1OCc1cncc(C#N)c1` had an IC50 of less than 5 nM. `Cc1c(OCCCN2CC(F)C2)cccc1-c1cccc2c1CC[C@@H]2Oc1cc(OCc2cncc(C#N)c2)c(CNCC2CCC(=O)N2)cc1Cl` (stereo partly shown) returned an IC50 of less than 5 nM. `N#Cc1cc(C#N)cc(COc2cc(O[C@@H]3c4cccc(-c5cccc(OCCCN6CC(O)C6)c5Cl)c4C[C@@H]3F)c(Cl)cc2CNC[C@H]2CCC(=O)N2)c1`: the IC50 was less than 5 nM. In turn, `C[C@@](CO)(NCc1cc(Cl)c(O[C@@H]2c3cccc(-c4cccc(OCCCN5CC(O)C5)c4Cl)c3C[C@@H]2F)cc1OCc1cc(C#N)cc(C#N)c1)C(=O)O` registered a 50% inhibitory concentration (IC50) of less than 5 nM.

Consider `N#Cc1cncc(COc2cc(O[C@H]3CCc4c(-c5cccc(OCCCN6CC[C@@H](F)C6)c5Cl)cccc43)c(Cl)cc2CN[C@@H]2CCCC[C@@H]2O)c1`, for which the IC50 was less than 5 nM.

One may read the IC50 as the concentration that gives 50% inhibition. Low readings indicate greater potency in that assay, high ones weaker potency in that assay.
